Measurements reported in patent US20070203233A1, “NOVEL 2-(alpha-N-PENTANONYL)BENZOATES, THEIR PREPARATION AND USE” (priority 2004, published 2007).

Key:
The Stability to Light = type: physicochemical; conditions: 10 days, HPLC
Thermal Stability = type: physicochemical; conditions: 60° C., 10 days, HPLC
[1] = test system: model rats of middle cerebral artery thrombosis (MCAT); assay: Effects on cerebral infarct area of MCAT rats; type: in vivo, SD rats; conditions: for Cerebral infarct tissue weight/total brain weight (%): 24 h after operation, TTC staining; for Inhibition (%): cerebral infarct vs. model group
[2] = The Stability of Aqueous Solution; conditions: for wt % decomposed product: aqueous solution 0.2 mg/ml
Description: Compounds were dissolved in water to form aqueous solutions in a concentration of 0.2 mg/ml, and the amount of decomposed products were measured.
The amounts of decomposed products were determined in accordance with the test described in Pharmacopoeia of P.R. China, 2000 edition, appendix VD of part two, by HPLC method, C18 column, mobile phase of acetonitrile:0.02M sodium dihydrogen phosphate=40:60, detecting wavelength of 230 nm, flow rate of 1 ml/min.

[3] = The Stability to Humidity (high humidity test); type: physicochemical; conditions: 10 days, HPLC purity
[4] = test system: model rats of middle cerebral artery thrombosis (MCAT); assay: Effects on neural symptoms of MCAT rats; type: in vivo, SD rats; set-up: key to Scores 6 hours / Scores 24 hours: 0/1 per test, summed (max 4); higher = more severe behavioral disorder; conditions: for Scores 6 hours: behavioral score 6 h after operation (full mark 4); for Scores 24 hours: behavioral score 24 h after operation (full mark 4)
Description: (1) Grouping and administration: […] Preventive administration was conducted by gavage one time per day for 3 days prior to the model being established. The model was established on day 4, and a dosage of one day was administered by gavage immediately after the model was established. Another dosage of one day was again administered by gavage 12 hours after the model was established. Equivalent amount of the vehicle was administered to the control group. […] Description of technique and early neuropathological consequences following middle cerebral artery occlusion. J Cereb Blood Flow Metab, 1981, 1: 53), and fixed in lateral decubitus position. A bowtype incision of 1.5 cm long was made at the midpoint between canthus and exterior auditory canal. Temporalis was broken and incised to expose temporal bone. […] The filter paper was removed after 30 min when the vascular became black. The localized tissue was washed with physiological brine, and sutured layer by layer. Then rats were placed back into the cages. By following the modified method of Bederson et al. […] (2) The animals were placed onto a smooth ground, and the resistance of contralateral shoulder to push was examined. “0” was recorded if the resistance of both shoulders were equal and strong; and “1” was recorded if the resistance of contralateral shoulder to push was decreased. […] (4) The tail of the rat was lifted 30 cm high away from the ground, and “1” was recorded if the animals ceaselessly circled contralaterally. “4” was full mark in accordance with the above-mentioned standard. The higher the score was, more severe the behavioral disorder of the animal was. 4. Results: The behavioral scores in each group were compared by student t test.

Compound | wt % decomposed product ([2]; 0 hr) [wt %] | wt % decomposed product ([2]; 1 hr) [wt %] | wt % decomposed product ([2]; 2 hr) [wt %] | wt % decomposed product ([2]; 4 hr) [wt %] | wt % decomposed product ([2]; 16 hr) [wt %] | wt % decomposed product ([2]; 24 hr) [wt %] | Scores 6 hours ([4]; 50 mg/kg by gavage) | Scores 24 hours ([4]; 50 mg/kg by gavage) | Scores 6 hours ([4]; 100 mg/kg by gavage) | Scores 24 hours ([4]; 100 mg/kg by gavage) | Scores 6 hours ([4]; 200 mg/kg by gavage) | Scores 24 hours ([4]; 200 mg/kg by gavage) | Cerebral infarct tissue weight/total brain weight (%) ([1]; 50 mg/kg by gavage) | Inhibition (%) ([1]; 50 mg/kg by gavage) | Cerebral infarct tissue weight/total brain weight (%) ([1]; 100 mg/kg by gavage) | Inhibition (%) ([1]; 100 mg/kg by gavage) | Cerebral infarct tissue weight/total brain weight (%) ([1]; 200 mg/kg by gavage) | Inhibition (%) ([1]; 200 mg/kg by gavage) | further results
CCCCC(=O)c1ccccc1C(=O)[O-].[Na+] [Sodium 2-(α-n-pentanonyl)benzoate, sodium 2-(α-n-pentanonyl)benzoate] | 0 | 0 | 0 | 0 | 0 | 0 | – | – | – | – | – | – | – | – | – | – | – | – | decomposed product detected, stability to light (in words) (The Stability to Light): no decomposed product; decomposed product detected, thermal stability (in words) (Thermal Stability): no decomposed product; cerebral infarct as compared with the model group (in words) ([1]; 50 mg/kg, P<0.05): significantly reduced; decomposed product detected (in words) ([2]; after exposed to water for 24 hours): no decomposed product
CCCCC(O)c1ccccc1C(=O)[O-].[K+] (stereo not drawn) [Potassium 2-(α-hydroxypentyl)benzoate] | 0 | 0.2 | 0.36 | 0.75 | 4.5 | 5.3 | 3.50 ± 0.71 | 3.30 ± 0.48 | 3.55 ± 0.52 | 3.00 ± 0.89 | 3.45 ± 0.52 | 2.73 ± 0.79 | 6.16 ± 2.46 | 16.87 | 5.73 ± 2.20 | 27.83 | 5.37 ± 2.00 | 29.43 | decomposition after absorbing moisture (in words) [3]: highly decomposed
N,N′-dibenzylethylenediamine 2-(α-hydroxypentyl)benzoate | – | – | – | – | – | – | 3.45 ± 0.52 | 3.09 ± 0.54 | 3.45 ± 0.52 | 2.91 ± 0.70 | 3.36 ± 0.67 | 2.82 ± 0.87 | 5.85 ± 2.32 | 21.05 | 5.50 ± 1.82 | 30.73 | 5.09 ± 2.14 | 33.11 | % inhibition at hour 24 ([4]; 50 mg/kg by gavage, vs. model group): 15.11%; alleviation on neural symptoms at 24 hours after the operation (in words) ([4]; 50 mg/kg, vs. model group, P<0.01 or P<0.05): significantly alleviation; % inhibition at hour 24 ([4]; 100 mg/kg by gavage, vs. model group): 21.98%; % inhibition at hour 24 ([4]; 200 mg/kg by gavage, vs. model group): 24.40%
